According to patent publication US12595230B2, “Substituted 6,7-dihydro-5H-benzo[7]annulene compounds and their derivatives, processes for their preparation and therapeutic uses thereof” (Sanofi, priority 2020, dated 2026):

Molecular target: T1, ERα (Homo sapiens, UniProt P03372)
T1 construct: host or cells: MCF7
T1 sequence (P03372 1-595): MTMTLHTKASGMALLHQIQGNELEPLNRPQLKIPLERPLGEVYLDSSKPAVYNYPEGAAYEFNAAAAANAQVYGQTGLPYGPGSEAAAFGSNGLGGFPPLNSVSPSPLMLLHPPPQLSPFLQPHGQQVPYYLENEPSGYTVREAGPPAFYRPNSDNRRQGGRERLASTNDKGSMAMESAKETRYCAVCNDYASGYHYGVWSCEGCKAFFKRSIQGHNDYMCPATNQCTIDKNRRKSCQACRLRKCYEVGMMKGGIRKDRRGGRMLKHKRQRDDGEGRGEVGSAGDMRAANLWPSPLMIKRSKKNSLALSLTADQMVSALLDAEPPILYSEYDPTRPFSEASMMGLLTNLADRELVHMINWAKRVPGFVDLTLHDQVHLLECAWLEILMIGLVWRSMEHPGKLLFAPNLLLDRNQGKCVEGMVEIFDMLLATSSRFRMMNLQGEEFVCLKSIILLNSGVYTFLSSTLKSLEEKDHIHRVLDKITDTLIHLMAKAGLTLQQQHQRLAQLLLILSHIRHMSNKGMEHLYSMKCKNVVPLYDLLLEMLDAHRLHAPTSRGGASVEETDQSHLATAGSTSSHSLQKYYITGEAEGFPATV
Experiment: Estrogen receptor degradation activity: breast cancer cell ERα in cell western assay (MCF7 cells)
Assay type: cell-based
Settings: for % Degradation At 0.3 μM: 4 hours, relative to fulvestrant 0.1 μM positive control; for DC50: read-out: Degradation IC50
How it was run: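 Compounds were applied to MCF7 cells in stripped-serum, phenol red-free medium for 4 h at final 0.3–0.0000018 μM, with fulvestrant (0.1 μM) as control. Value: IC50 (nM) for 50% ERα degradation.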

[1] = 4 hours post compound addition, concentration which degrades 50% of the estrogen receptor

Structure (SMILES) | % Degradation At 0.3 μM [%] | DC50 [1] [nM] | IC50 [1] [nM]
Cc1c(Cl)cccc1C1=C(c2ccc(CC3CN(CCCF)C3)cc2)c2ccc(C(=O)O)cc2CCC1.Cl [Example 212, 8-(3-chloro-2-methylphenyl)-9-(4-((1-(3-fluoropropyl)azetidin-3-yl)methyl)phenyl)-6,7-dihydro-5H-benzo[7]annulene-3-carboxylic acid hydrochloride] | 87 |  | 0.1
Cc1ccc(C2=C(c3ccc(CC4CN(CCCF)C4)cc3)c3cc(F)c(C(=O)O)c(F)c3CCC2)c(Cl)c1 [Example 217, 8-(2-chloro-4-methylphenyl)-2,4-difluoro-9-(4-((1-(3-fluoropropyl)azetidin-3-yl)methyl)phenyl)-6,7-dihydro-5H-benzo[7]annulene-3-carboxylic acid] | 86 | 6.2 | 
COc1c(C(=O)O)ccc2c1CCCC(c1ccc(F)cc1F)=C2c1ccc(CC2CN(CCCF)C2)cc1 [Example 270, 8-(2,4-difluorophenyl)-9-(4-((1-(3-fluoropropyl)azetidin-3-yl)methyl)phenyl)-4-methoxy-6,7-dihydro-5H-benzo[7]annulene-3-carboxylic acid] | 100 | 225 | 
Cl.O=C(O)c1ccc2c(c1)OCCC(c1ccccc1Cl)=C2c1ccc(CC2CN(CCCF)C2)cc1 [Example 49, 4-(2-chlorophenyl)-5-(4-((1-(3-fluoropropyl)azetidin-3-yl)methyl)phenyl)-2,3-dihydrobenzo[b]oxepine-8-carboxylic acid] | 82 | 3.4 | 
O=C([O-])c1ccc2c(c1)CCCC(c1cc(F)cc(C(F)F)c1)=C2c1ccc(CC2CN(CCCF)C2)cc1.[Na+] [Example 251, sodium 8-(3-(difluoromethyl)-5-fluorophenyl)-9-(4-((1-(3-fluoropropyl)azetidin-3-yl)methyl)phenyl)-6,7-dihydro-5H-benzo[7]annulene-3-carboxylate] | 87 | 0.7 | 
Cl.O=C(O)c1ccc2c(c1)CCCC(c1ccc(C(F)(F)F)cc1)=C2c1ccc(CC2CN(CCCF)C2)cc1 [Example 318, 9-(4-((1-(3-fluoropropyl)azetidin-3-yl)methyl)phenyl)-8-(4-(trifluoromethyl)phenyl)-6,7-dihydro-5H-benzo[7]annulene-3-carboxylic acid hydrochloride] | 94 | 0.6 | 
CC1CCc2cc(C(=O)O)ccc2C(c2ccc(CC3CN(CCCF)C3)cc2)=C1c1ccc(F)c(F)c1 (racemic) [Example 326, 8-(3,4-difluorophenyl)-9-(4-((1-(3-fluoropropyl)azetidin-3-yl)methyl)phenyl)-7-methyl-6,7-dihydro-5H-benzo[7]annulene-3-carboxylic acid] | 91 | 0.7 | 
O=C(O)c1ccc2c(c1)CCCC(c1ccccc1Cl)=C2c1ccc(CC2CN(CCCF)C2)cn1 [Example 252, 8-(2-chlorophenyl)-9-(5-((1-(3-fluoropropyl)azetidin-3-yl)methyl)pyridin-2-yl)-6,7-dihydro-5H-benzo[7]annulene-3-carboxylic Acid] | 67 | 48.6 | 
O=C(O)c1ccc2c(c1)CCCC(c1nc(Cl)ccc1C(F)(F)F)=C2c1ccc(CC2CN(CCCF)C2)cc1 [Example 300, 8-(6-chloro-3-(trifluoromethyl)pyridin-2-yl)-9-(4-((1-(3-fluoropropyl)azetidin-3-yl)methyl)phenyl)-6,7-dihydro-5H-benzo[7]annulene-3-carboxylic acid] | 88 | 11.2 | 
COc1cc(C2=C(c3ccc(CC4CN(CCCF)C4)cc3)c3ccc(C(=O)[O-])cc3CCC2)cc(C(F)(F)F)n1.[Na+] [Example 274, sodium 9-(4-((1-(3-fluoropropyl)azetidin-3-yl)methyl)phenyl)-8-(2-methoxy-6-(trifluoromethyl)pyridin-4-yl)-6,7-dihydro-5H-benzo[7]annulene-3-carboxylate] | 84 | 6.5 | 
COc1ccc(C2=C(c3ccc(CC4CN(CCCF)C4)cc3)c3ccc(C(=O)O)cc3CCC2)cn1 [Example 18, 9-(4-((1-(3-fluoropropyl)azetidin-3-yl)methyl)phenyl)-8-(6-methoxypyridin-3-yl)-6,7-dihydro-5H-benzo[7]annulene-3-carboxylic acid] | 95 | 1.6 | 

Further lines, results first:

% Degradation At 0.3 μM [%] | DC50 [1] [nM] | IC50 [1] [nM] | Structure (SMILES)
90 | 0.6 |  | CC1CCc2cc(C(=O)O)ccc2C(c2ccc(CC3CN(CCCF)C3)cc2)=C1c1ccc(Cl)cc1Cl (single isomer, unassigned) [Example 302, 8-(2,4-dichlorophenyl)-9-(4-((1-(3-fluoropropyl)azetidin-3-yl)methyl)phenyl)-7-methyl-6,7-dihydro-5H-benzo[7]annulene-3-carboxylic acid]
88 | 0.4 |  | Cc1c(F)ccc(C2=C(c3ccc(CC4CN(CCCF)C4)cc3)c3ccc(C(=O)O)cc3CCC2C)c1C (racemic) [Example 309, 8-(4-fluoro-2,3-dimethylphenyl)-9-(4-((1-(3-fluoropropyl)azetidin-3-yl)methyl)phenyl)-7-methyl-6,7-dihydro-5H-benzo[7]annulene-3-carboxylic acid]
75 | 0.6 |  | COC(c1ccc(C2=C(c3ccc(Cl)cc3Cl)CCCc3cc(C(=O)O)ccc32)cc1)C1CN(CCCF)C1 (single isomer, unassigned; isomer 1) [Example 227, 8-(2,4-dichlorophenyl)-9-(4-((1-(3-fluoropropyl)azetidin-3-yl)(methoxy)methyl)phenyl)-6,7-dihydro-5H-benzo[7]annulene-3-carboxylic Acid Isomer 1]
90 | 0.5 |  | Cc1ccc(C2=C(c3ccc(CC4CN(CCCF)C4)cc3)c3ccc(C(=O)O)cc3CCC2)c(Cl)c1.Cl [Example 7, 8-(2-chloro-4-methylphenyl)-9-(4-((1-(3-fluoropropyl)azetidin-3-yl)methyl)phenyl)-6,7-dihydro-5H-benzo[7]annulene-3-carboxylic acid]
88 | 0.3 |  | Cc1ccc(C2=C(c3ccc(CC4CN(CCCF)C4)cc3)c3ccc(C(=O)O)cc3CCC2)c(F)c1F.Cl [Example 210, 8-(2,3-difluoro-4-methylphenyl)-9-(4-((1-(3-fluoropropyl)azetidin-3-yl)methyl)phenyl)-6,7-dihydro-5H-benzo[7]annulene-3-carboxylic acid hydrochloride]
82 | 0.3 |  | Cc1cccc(C2=C(c3ccc(CC4CN(CCC(F)F)C4)cc3)c3ccc(C(=O)O)cc3CCC2)c1Cl [Example 277, 8-(2-chloro-3-methylphenyl)-9-(4-((1-(3,3-difluoropropyl)azetidin-3-yl)methyl)phenyl)-6,7-dihydro-5H-benzo[7]annulene-3-carboxylic acid]
86 | 0.5 |  | Cl.O=C(O)c1ccc2c(c1)CCCC(C1=CCC(F)(F)CC1)=C2c1ccc(CC2CN(CCCF)C2)cc1 [Example 5, 8-(4,4-difluorocyclohex-1-en-1-yl)-9-(4-((1-(3-fluoropropyl)azetidin-3-yl)methyl)phenyl)-6,7-dihydro-5H-benzo[7]annulene-3-carboxylic acid]
90 | 0.4 |  | Cc1cc2c(cc1C(=O)O)CCCC(c1ccc(Cl)cc1Cl)=C2c1ccc(CC2CN(CCCF)C2)cc1 [Example 249, 8-(2,4-dichlorophenyl)-9-(4-((1-(3-fluoropropyl)azetidin-3-yl)methyl)phenyl)-2-methyl-6,7-dihydro-5H-benzo[7]annulene-3-carboxylic acid]
84 | 0.2 |  | Cc1cc(F)ccc1C1=C(c2ccc(CC3CN(CCC(F)F)C3)cc2)c2ccc(C(=O)O)cc2CCC1 [Example 279, 9-(4-((1-(3,3-difluoropropyl)azetidin-3-yl)methyl)phenyl)-8-(4-fluoro-2-methylphenyl)-6,7-dihydro-5H-benzo[7]annulene-3-carboxylic acid]
90 | 0.4 |  | CC1CCc2cc(C(=O)O)ccc2C(c2ccc(CC3CN(CCCF)C3)cc2)=C1c1ccc(Cl)cc1Cl (single isomer, unassigned) [Example 303, 8-(2,4-dichlorophenyl)-9-(4-((1-(3-fluoropropyl)azetidin-3-yl)methyl)phenyl)-7-methyl-6,7-dihydro-5H-benzo[7]annulene-3-carboxylic acid]
91 | 0.4 |  | COc1c(Cl)cccc1C1=C(c2ccc(CC3CN(CCCF)C3)cc2)c2ccc(C(=O)O)cc2CCC1 [Example 334, 8-(3-chloro-2-methoxyphenyl)-9-(4-((1-(3-fluoropropyl)azetidin-3-yl)methyl)phenyl)-6,7-dihydro-5H-benzo[7]annulene-3-carboxylic acid]
